Structures are written as SMILES. Counter-ions that a name gives are not always drawn.

Test [1] addresses T1, LON-1 (Caenorhabditis elegans, UniProt Q09566).
T1 sequence (Q09566 24-312): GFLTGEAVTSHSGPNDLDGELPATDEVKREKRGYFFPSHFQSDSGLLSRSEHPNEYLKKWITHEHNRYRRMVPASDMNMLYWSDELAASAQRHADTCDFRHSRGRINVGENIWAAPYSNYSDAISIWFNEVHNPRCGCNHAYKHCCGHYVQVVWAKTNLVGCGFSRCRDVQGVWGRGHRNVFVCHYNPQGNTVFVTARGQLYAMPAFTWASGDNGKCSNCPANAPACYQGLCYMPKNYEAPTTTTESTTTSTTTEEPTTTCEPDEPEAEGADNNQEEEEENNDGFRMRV
In words: microscale thermophoresis. It counts as binding. A general note: MST reads how a fluorescent partner responds to local heating, with and without ligand.

The target of test [2] is LON-1 (Caenorhabditis elegans, UniProt Q09566, V175A). As to the kind of experiment: biochemical.
Sequence of LON-1 (Caenorhabditis elegans, UniProt Q09566, V175A) (Q09566 24-312 V175A): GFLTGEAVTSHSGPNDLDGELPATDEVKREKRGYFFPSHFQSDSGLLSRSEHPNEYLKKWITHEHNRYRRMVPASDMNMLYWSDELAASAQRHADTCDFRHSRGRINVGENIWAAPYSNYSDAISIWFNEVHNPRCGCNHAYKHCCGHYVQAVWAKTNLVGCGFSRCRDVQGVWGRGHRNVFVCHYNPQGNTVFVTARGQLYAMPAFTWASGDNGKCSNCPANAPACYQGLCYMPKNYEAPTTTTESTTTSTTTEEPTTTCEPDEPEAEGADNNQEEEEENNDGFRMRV
The target of test [3] is LON-1 (Caenorhabditis elegans, UniProt Q09566, C207S). In words: biochemical.
Sequence of LON-1 (Caenorhabditis elegans, UniProt Q09566, C207S) (Q09566 24-312 C207S): as the sequence (Q09566 24-312 V175A) above, with A152V, C184S counted along it
The target in test [4] is LON-1 (Caenorhabditis elegans, UniProt Q09566, C185Y). As to the kind of experiment: biochemical.
Sequence of LON-1 (Caenorhabditis elegans, UniProt Q09566, C185Y) (Q09566 24-312 C185Y): as the sequence (Q09566 24-312 V175A) above, with A152V, C162Y counted along it
In test [5] the target is LON-1 (Caenorhabditis elegans, UniProt Q09566, E153A). As to the kind of experiment: biochemical.
Sequence of LON-1 (Caenorhabditis elegans, UniProt Q09566, E153A) (Q09566 24-312 E153A): as the sequence (Q09566 24-312 V175A) above, with E130A, A152V counted along it

Take `CCCCCCCCCCCCCCCC(=O)O` [palmitic acid]: the Kd in test [1] is approximately 430 µM.

In the case of `CC(C)CCC[C@@H](C)[C@H]1CC[C@H]2[C@@H]3CC=C4C[C@@H](OS(=O)(=O)O)CC[C@]4(C)[C@H]3CC[C@]12C` [cholesterol sulfate], the Kd in test [1] was approximately 19 µM; in test [2], 76 ± 24 µM; in test [3] it was 332 ± 145 µM; in test [4], 261 ± 92 µM; in test [5], 26 ± 8 µM.

Usually Kd stands for the concentration at which binding is half-saturated. A high value points to weaker binding.
